Test [1] deals with T1, rat B1R (Rattus norvegicus, UniProt P97583).
T1 construct: expressed in transfected cells; host or cells: CHO K1 cells
T1 sequence (P97583 1-337): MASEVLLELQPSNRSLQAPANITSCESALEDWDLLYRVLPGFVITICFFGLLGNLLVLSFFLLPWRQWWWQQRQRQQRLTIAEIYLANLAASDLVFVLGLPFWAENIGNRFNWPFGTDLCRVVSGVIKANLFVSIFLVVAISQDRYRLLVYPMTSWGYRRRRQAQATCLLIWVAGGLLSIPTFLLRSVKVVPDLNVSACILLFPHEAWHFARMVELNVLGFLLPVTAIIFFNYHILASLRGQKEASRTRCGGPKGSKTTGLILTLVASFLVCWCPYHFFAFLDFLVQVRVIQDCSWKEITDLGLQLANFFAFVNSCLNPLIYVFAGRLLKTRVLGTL
As to the kind of experiment: FLIPR Ca2+ functional study on bradykinin receptor 1 (rB1R CHO K1 cells). In kind it is cell-based. Conditions: for inhibition at 10 µM: CHO-K1, % inhibition rat B1R at 10 μM, read-out: % inh. (rat B1R) 10 μM. Summed up:
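CHO K1 cells stably expressing human or rat B1R were loaded with Fluo-4 and read on FLIPR (ex 488/em 540 nm, peak counts). Test compound (10 μM, or a concentration range for IC50) was added first for % activation versus control agonist; after 10-20 min, EC80 Lys-Des-Arg9-bradykinin (human) or Des-Arg9-bradykinin (rat) was added, giving % inhibition of maximum. n=2-3, N≥2.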

Test [2] concerns the target T2, human B1R (Homo sapiens, UniProt P46663).
T2 construct: expressed in transfected cells; host or cells: CHO K1 cells
T2 sequence (P46663 1-353): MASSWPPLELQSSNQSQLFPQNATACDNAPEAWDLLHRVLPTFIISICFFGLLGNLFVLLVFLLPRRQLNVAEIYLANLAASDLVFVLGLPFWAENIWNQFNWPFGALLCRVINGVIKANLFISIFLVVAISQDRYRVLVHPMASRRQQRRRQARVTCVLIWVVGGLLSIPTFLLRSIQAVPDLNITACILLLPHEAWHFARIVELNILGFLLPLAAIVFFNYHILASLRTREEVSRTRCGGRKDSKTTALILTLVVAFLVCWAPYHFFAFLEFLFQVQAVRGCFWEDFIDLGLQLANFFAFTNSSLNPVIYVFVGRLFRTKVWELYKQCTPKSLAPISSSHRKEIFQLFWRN
Put plainly: FLIPR Ca2+ functional study on bradykinin receptor 1 (hB1R CHO K1 cells). In kind it is cell-based. The note with it: % inhibition human B1R at 10 μM, read-out: % inh. (hum. B1R) 10 μM. On the procedure:
The agonistic or antagonistic activity of substances can be quantified on the bradykinin receptor 1 (B1R) of the species human and rat using ectopically expressing cell lines (CHO K1 cells) and with the aid of a Ca^2+-sensitive dye (Fluo-4) using a fluorescent imaging plate reader (FLIPR). The indication in % activation is based on the Ca^2+ signal after addition of Lys-Des-Arg^9-bradykinin (0.5 nM) or Des-Arg^9-bradykinin (100 nM). Antagonists lead to suppression of the Ca^2+ influx after the addition of the agonist. % Inhibition compared with the maximum achievable inhibition is indicated.
The agonistic or antagonistic activity of substances can be determined on the bradykinin receptor 1 (B1R) of the species human and rat using the following assay. According to this assay, the Ca^2+ influx through the channel is quantified with the aid of a Ca^2+-sensitive dye (Fluo-4 type, Molecular Probes Europe BV, Leiden, Netherlands) using a Fluorescent Imaging Plate Reader (FLIPR, Molecular Devices, Sunnyvale, USA).
Chinese hamster ovary cells (CHO K1 cells) which have been stably transfected with the human B1R gene (hB1R cells) or with the B1R gene of the rat (rB1R cells) are used. For functional studies, the cells are plated out on black 96-well plates having a clear base (BD Biosciences, Heidelberg, Germany or Greiner, Frickenhausen, Germany) in a density of 20,000-35,000 cells/well. The cells are left overnight at 37° C. and with 5% CO2 in culture medium (hB1R cells: Nutrient Mixture Ham's F12, Gibco Invitrogen GmbH, Karlsruhe, Germany or DMEM, Sigma-Aldrich, Taufkirchen, Germany; rB1R cells: D-MEM/F12, Gibco Invitrogen GmbH, Karlsruhe, Germany), with 10 vol.% FBS (fetal bovine serum, Gibco Invitrogen GmbH, Karlsruhe, Germany or PAN Biotech GmbH, Aidenbach, Germany). On the following day, the cells are loaded for 60 minutes at 37° C. with 2.13 μM Fluo-4 (Molecular Probes Europe BV, Leiden, Netherlands) in HBSS buffer (Hank's buffered saline solution, Gibco Invitrogen GmbH, Karlsruhe, Germany) […] (Sigma-Aldrich, Taufkirchen, Germany) and 10 mM HEPES (Sigma-Aldrich, Taufkirchen, Germany). The plates are then washed twice with HBSS buffer, and HBSS buffer additionally containing 0.1% BSA (bovine serum albumin; Sigma-Aldrich, Taufkirchen, Germany), 5.6 mM glucose and 0.05% gelatin (Merck KGaA, Darmstadt, Germany) is added to the plates. After incubation for a further 20 minutes at room temperature, the plates are inserted into the FLIPR for Ca^2+ measurement. Alternatively, washing is carried out with buffer A (15 mM HEPES, 80 mM NaCl, 5 mM KCl, 1.2 mM CaCl2, 0.7 mM MgSO4, 2 g/l glucose, 2.5 mM probenecid) followed by loading with buffer A with added 2.5 μM Fluo-4 and 0.025% Pluronic F127 (Sigma-Aldrich, Taufkirchen, Germany). The cells are then washed twice with buffer A and incubated for 30 minutes at room temperature with buffer A additionally containing 0.05% BSA and 0.05% gelatin and are then inserted into the FLIPR for Ca^2+ measurement. The Ca^2+-dependent fluorescence is measured before and after the addition of substances (λex=488 nm, λem=540 nm). Quantification is carried out by measuring the highest fluorescence intensity (FC, fluorescence counts) over time.
The FLIPR protocol consists of two substance additions. Test substances (10 μM) are first pipetted onto the cells and the Ca^2+ influx is compared with the control (hB1R: Lys-Des-Arg^9-bradykinin>=50 nM; rB1R: Des-Arg^9-bradykinin 10 μM). This gives the activation in %, based on the Ca^2+ signal after addition of Lys-Des-Arg^9-bradykinin (>=50 nM) or Des-Arg^9-bradykinin (10 μM). After 10-20 minutes' incubation, Lys-Des-Arg^9-bradykinin (hB1R) or Des-Arg^9-bradykinin (rB1R) is applied in the concentration of the EC80, and the influx of Ca^2+ is likewise determined. Antagonists lead to suppression of the Ca^2+ influx. The % inhibition compared with the maximum achievable inhibition is calculated. […]

This is an account of results in patent US8269000B2, “Substituted pyrimidine and triazine compounds” (Gruenenthal GmbH, priority 2008, dated 2012).

Molecules are shown by their SMILES. Where a name gives a salt, the structure may show the parent alone.

In the case of `COc1cc(C)c(S(=O)(=O)N2CC(Oc3ccnc(N4CCC5(CCN(c6ccncc6)CC5)CC4)n3)C2)c(C)c1` [Example H-007, 3-[4-[[1-(4-methoxy-2,6-dimethylphenyl)sulfonyl-3-azetidinyl]oxy]-2-pyrimidinyl]-9-(4-pyridyl)-3,9-diazaspiro[5.5]undecane], the inhibition at 10 µM came out at 80% in test [1] and 11% in test [2].
On the same counts, the results for `COc1cc(C)c(S(=O)(=O)N2CC(Oc3nccc(N4CCC5(CCN(c6ccncc6)CC5)CC4)n3)C2)c(C)c1` [Example G-018, 3-[2-[[1-(4-methoxy-2,6-dimethylphenyl)sulfonyl-3-azetidinyl]oxy]-4-pyrimidinyl]-9-(4-pyridyl)-3,9-diazaspiro[5.5]undecane] are 93% and 99%.
In the same order, the values of `COc1cc(C)c(S(=O)(=O)N(CCOc2nccc(N3CCC(O)(c4cccnc4)CC3)n2)C2CC2)c(C)c1` [Example G-008, N-cyclopropyl-N-[2-[[4-[4-hydroxy-4-(3-pyridyl)-1-piperidinyl]-2-pyrimidinyl]oxy]ethyl]-4-methoxy-2,6-dimethylbenzenesulfonamide] are 98% and 77%.
On the same counts, the results for `COc1cc(C)c(S(=O)(=O)N(CCOc2nccc(N3CCC4(CCC(N5CCC5)CC4)CC3)n2)C2CC2)c(C)c1` [Example G-015, N-[2-[[4-[9-(1-azetidinyl)-3-azaspiro[5.5]undecan-3-yl]-2-pyrimidinyl]oxy]ethyl]-N-cyclopropyl-4-methoxy-2,6-dimethylbenzenesulfonamide hydrochloride] are 95% and 99%.
As for `COc1cc(C)c(S(=O)(=O)N(C)C(COc2nccc(N3CCC(Oc4ccncc4)CC3)n2)c2ccccc2)c(C)c1` (centres unmarked) [G_CC-063, 4-methoxy-N,2,6-trimethyl-N-[1-phenyl-2-[[4-[4-(4-pyridyloxy)-1-piperidinyl]-2-pyrimidinyl]oxy]ethyl]benzenesulfonamide], the results for the inhibition at 10 µM in test [1] and in test [2] were 101% and 28%, respectively.
In the same order, the values of `COc1cc(C)c(S(=O)(=O)N(CCN(C)c2cc(N3CCC4(CCN(c5ccncc5)CC4)CC3)ncn2)C2CC2)c(C)c1` [Example I-003, N-cyclopropyl-4-methoxy-2,6-dimethyl-N-[2-[methyl-[6-(9-pyridin-4-yl-3,9-diazaspiro[5.5]undecan-3-yl)-pyrimidin-4-yl]-amino]-ethyl]-benzenesulfonic acid amide] are 108% and 96%.
On the same counts, the results for `COc1cc(C)c(S(=O)(=O)N2CCCCC2COc2nccc(N3CCC(N4CCN(C)CC4)CC3)n2)c(C)c1` (centres unmarked) [G_CC-011, 2-[[1-(4-methoxy-2,6-dimethylphenyl)sulfonyl-2-piperidinyl]methoxy]-4-[4-(4-methyl-1-piperazinyl)-1-piperidinyl]pyrimidine] are 96% and 91%.
In the same order, the values of `COc1cc(C)c(S(=O)(=O)N(CCOc2ccnc(N3CCC(Oc4ccncc4)CC3)n2)C2CC2)c(C)c1` [Example H-005, N-cyclopropyl-4-methoxy-2,6-dimethyl-N-[2-[[2-[4-(4-pyridyloxy)-1-piperidinyl]-4-pyrimidinyl]oxy]ethyl]benzenesulfonamide] are 97% and 98%.
As for `COc1cc(C)c(S(=O)(=O)N(C)CCOc2nccc(N(C)CCN3CCC(c4ccccc4)(N(C)C)CC3)n2)c(C)c1` [Example G-003, N-[2-[[4-[2-(4-dimethylamino-4-phenyl-1-piperidinyl)ethyl-methylamino]-2-pyrimidinyl]oxy]ethyl]-4-methoxy-N,2,6-trimethylbenzenesulfonamide], the “% inh. (rat B1R) 10 μM” value in test [1] (% inhibition rat B1R at 10 μM, 10 µM) came to 112%. Besides, in test [2], the inhibition at 10 µM was found to be 101%.
`COc1cc(C)c(S(=O)(=O)NC(C)(C)COc2nccc(N3CCC4(CCN(c5ccncc5)CC4)CC3)n2)c(C)c1` [Example G-024, N-[1,1-dimethyl-2-[4-(9-pyridin-4-yl-3,9-diazaspiro[5.5]undecan-3-yl)-pyrimidin-2-yl]oxy-ethyl]-4-methoxy-2,6-dimethyl-benzenesulfonic acid amide]: the values for the inhibition at 10 µM in test [1] and in test [2] were 113% and 99%, respectively.
Regarding `COc1cc(C)c(S(=O)(=O)N2CCCCC2COc2nccc(N3CCC(CCN4CCCC4)CC3)n2)c(C)c1` (centres unmarked) [G_CC-003, 2-[[1-(4-methoxy-2,6-dimethylphenyl)sulfonyl-2-piperidinyl]methoxy]-4-[4-(2-1-pyrrolidinylethyl)-1-piperidinyl]pyrimidine], the inhibition at 10 µM in test [1] is 102%; in test [2], 100%.
In the same order, the values of `COc1cc(C)c(S(=O)(=O)N2CCC[C@H]2COc2nccc(N3CCC(O)(c4cccs4)CC3)n2)c(C)c1` [G_CC-021, 1-[2-[[(2S)-1-(4-methoxy-2,6-dimethylphenyl)sulfonyl-2-pyrrolidinyl]methoxy]-4-pyrimidinyl]-4-(2-thienyl)-4-piperidinol] are 105% and 36%.
In the same order, the values of `COc1cc(C)c(S(=O)(=O)N(CCOc2nccc(N3CCc4cc(CN5CCC5)ccc4C3)n2)C2CC2)c(C)c1` [Example G-013, N-[2-[[4-[6-(1-azetidinylmethyl)-3,4-dihydro-1H-isoquinolin-2-yl]-2-pyrimidinyl]oxy]ethyl]-N-cyclopropyl-4-methoxy-2,6-dimethylbenzenesulfonamide] are 102% and 92%.
